Experimental data from US9540381B2, “Anti-angiogenesis compound, intermediate and use thereof” (Guangzhou KangRui Biological Pharmaceutical Technology Co., …, priority 2013, dated 2017).
Each block holds one compound with its values, some of them ahead of it.

Columns and labels:
[1] = target: T1, KDR (VEGFR2) (Homo sapiens, UniProt P35968); assay: Inhibition specificity, KDR; type: biochemical; conditions: 5000 nM, average of two tests; for inhibition at 5 µM: read-out: Average Inhibition Rate (%) KDR
T1 construct: purchased Invitrogen
T1 sequence (P35968 20-1356, species assumed): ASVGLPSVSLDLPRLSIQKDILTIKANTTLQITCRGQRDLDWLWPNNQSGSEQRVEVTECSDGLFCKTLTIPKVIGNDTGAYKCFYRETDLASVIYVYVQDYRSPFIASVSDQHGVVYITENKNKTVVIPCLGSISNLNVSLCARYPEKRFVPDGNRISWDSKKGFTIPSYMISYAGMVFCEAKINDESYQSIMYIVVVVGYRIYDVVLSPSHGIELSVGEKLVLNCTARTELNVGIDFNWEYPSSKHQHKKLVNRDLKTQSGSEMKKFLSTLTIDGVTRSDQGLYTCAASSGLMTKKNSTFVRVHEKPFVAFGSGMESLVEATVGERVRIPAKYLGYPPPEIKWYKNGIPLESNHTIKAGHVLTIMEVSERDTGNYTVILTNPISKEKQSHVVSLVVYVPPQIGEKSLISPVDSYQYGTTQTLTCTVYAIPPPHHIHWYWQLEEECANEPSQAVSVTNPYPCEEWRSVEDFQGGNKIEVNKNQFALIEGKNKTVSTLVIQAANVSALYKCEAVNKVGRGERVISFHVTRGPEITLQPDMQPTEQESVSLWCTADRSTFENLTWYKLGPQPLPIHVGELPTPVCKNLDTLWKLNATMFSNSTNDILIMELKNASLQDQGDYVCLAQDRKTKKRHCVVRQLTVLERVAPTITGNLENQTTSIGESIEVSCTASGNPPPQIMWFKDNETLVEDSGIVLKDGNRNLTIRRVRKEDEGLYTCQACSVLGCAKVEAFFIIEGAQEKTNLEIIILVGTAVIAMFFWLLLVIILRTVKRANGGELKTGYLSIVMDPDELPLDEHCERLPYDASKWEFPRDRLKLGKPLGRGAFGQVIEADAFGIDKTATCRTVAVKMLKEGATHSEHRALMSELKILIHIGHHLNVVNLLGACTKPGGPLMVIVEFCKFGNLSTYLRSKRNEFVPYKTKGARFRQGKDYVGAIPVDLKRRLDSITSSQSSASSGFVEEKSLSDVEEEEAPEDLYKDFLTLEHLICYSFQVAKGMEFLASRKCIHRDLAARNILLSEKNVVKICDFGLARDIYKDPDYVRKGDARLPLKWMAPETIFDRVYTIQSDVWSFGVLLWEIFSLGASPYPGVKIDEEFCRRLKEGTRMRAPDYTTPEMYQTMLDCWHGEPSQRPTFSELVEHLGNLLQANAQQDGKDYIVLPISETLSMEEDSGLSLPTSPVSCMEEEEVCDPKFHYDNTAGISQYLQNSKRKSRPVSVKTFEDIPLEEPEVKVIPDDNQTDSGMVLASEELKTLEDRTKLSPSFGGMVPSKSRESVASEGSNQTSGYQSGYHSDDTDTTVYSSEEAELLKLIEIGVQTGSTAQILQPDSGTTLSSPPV

[2] = target: T2, SYK (Homo sapiens, UniProt P43405); assay: Inhibition specificity, SYK; type: biochemical; conditions: 5000 nM, average of two tests; read-out: Average Inhibition Rate (%) SYK
T2 construct: purchased BPS

[3] = target: T3, CDK2 (Homo sapiens, UniProt P24941); assay: Inhibition specificity, CDK2; type: biochemical; conditions: 5000 nM, average of two tests; read-out: Average Inhibition Rate (%) CDK2
T3 construct: purchased UPSTATE

[4] = target: T4, AKT2 (Homo sapiens, UniProt P31751); assay: Inhibition specificity, AKT2; type: biochemical; conditions: 5000 nM, average of two tests; read-out: Average Inhibition Rate (%) AKT2
T4 construct: purchased INVITROGEN

[5] = target: T5, VEGFR2 (KDR) (Homo sapiens, UniProt P35968); assay: Kinase inhibition dosage effect, KDR; type: biochemical; conditions: for IC50: [ATP] 80 μM, 3 hr; for Hill KDR: dose-effect curve fit
T5 construct: purchased Invitrogen
T5 sequence (P35968 20-1356, species assumed): as above

[6] = target: T6, GSK-3-β (Homo sapiens, UniProt P49841); assay: Inhibition specificity, GSK-3-β; type: biochemical; conditions: 5000 nM, average of two tests; read-out: Average Inhibition Rate (%) GSK-3-β
T6 construct: purchased UPSTATE

[7] = target: T7, P38-α (Homo sapiens, UniProt Q16539); assay: Inhibition specificity, P38-α; type: biochemical; conditions: 5000 nM, average of two tests; read-out: Average Inhibition Rate (%) P38-α
T7 construct: purchased AMPHORA

[8] = target: T8, PKC-α (Homo sapiens, UniProt P17252); assay: Inhibition specificity, PKC-α; type: biochemical; conditions: 5000 nM, average of two tests; read-out: Average Inhibition Rate (%) PKC-α
T8 construct: purchased INVITROGEN

[9] = target: T9, PDGFR-β (Homo sapiens, UniProt P09619); assay: Inhibition specificity, PDGFR-β; type: biochemical; conditions: 5000 nM, average of two tests; read-out: Average Inhibition Rate (%) PDGFR-β
T9 construct: purchased Upstate
T9 sequence (P09619 33-1106, species assumed): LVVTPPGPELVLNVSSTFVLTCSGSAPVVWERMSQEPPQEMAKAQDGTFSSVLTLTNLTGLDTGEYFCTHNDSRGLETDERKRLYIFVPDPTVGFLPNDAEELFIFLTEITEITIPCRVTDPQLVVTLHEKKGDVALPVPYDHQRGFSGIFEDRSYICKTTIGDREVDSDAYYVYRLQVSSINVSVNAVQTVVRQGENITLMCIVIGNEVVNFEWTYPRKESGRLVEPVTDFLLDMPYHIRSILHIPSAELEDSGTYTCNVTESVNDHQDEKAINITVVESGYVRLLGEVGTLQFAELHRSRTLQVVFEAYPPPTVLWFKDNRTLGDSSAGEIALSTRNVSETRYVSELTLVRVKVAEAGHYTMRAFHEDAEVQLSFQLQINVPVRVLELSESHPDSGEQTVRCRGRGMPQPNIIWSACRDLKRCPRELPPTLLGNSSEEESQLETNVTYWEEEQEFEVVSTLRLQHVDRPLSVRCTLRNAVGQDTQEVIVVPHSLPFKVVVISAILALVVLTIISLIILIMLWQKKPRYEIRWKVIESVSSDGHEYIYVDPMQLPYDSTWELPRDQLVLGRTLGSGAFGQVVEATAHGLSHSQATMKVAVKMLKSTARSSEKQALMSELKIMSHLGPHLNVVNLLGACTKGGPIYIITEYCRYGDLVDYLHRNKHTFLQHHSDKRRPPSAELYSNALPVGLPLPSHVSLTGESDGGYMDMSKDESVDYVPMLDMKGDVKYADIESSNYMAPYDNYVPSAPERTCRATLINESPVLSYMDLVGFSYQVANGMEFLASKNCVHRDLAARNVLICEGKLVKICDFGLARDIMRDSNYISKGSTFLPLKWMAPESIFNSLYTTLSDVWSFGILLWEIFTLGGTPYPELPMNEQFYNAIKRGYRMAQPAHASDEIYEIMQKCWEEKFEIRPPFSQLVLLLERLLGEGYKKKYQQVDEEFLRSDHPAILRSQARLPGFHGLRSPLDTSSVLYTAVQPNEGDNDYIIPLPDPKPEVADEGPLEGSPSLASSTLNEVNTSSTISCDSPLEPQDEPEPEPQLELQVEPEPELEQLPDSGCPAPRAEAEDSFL

[10] = target: T10, KIT (Homo sapiens, UniProt P10721); assay: Inhibition specificity, KIT; type: biochemical; conditions: 5000 nM, average of two tests; read-out: Average Inhibition Rate (%) KIT
T10 construct: purchased INVITROGEN

[11] = target: T9, PDGFR-β; assay: Kinase inhibition dosage effect, PDGFR-β; type: biochemical; conditions: for IC50: [ATP] 30 μM, 3 hr; for Hill PDGFR-β: dose-effect curve fit
[12] = target: T11, MET (Homo sapiens, UniProt P08581); assay: Inhibition specificity, MET; type: biochemical; conditions: 5000 nM, average of two tests; read-out: Average Inhibition Rate (%) MET
T11 construct: purchased INVITROGEN

[13] = target: T12, PI3K-α (Homo sapiens, UniProt P42336); assay: Inhibition specificity, PI3K-α (ADP-Glo); type: biochemical; conditions: 5000 nM, average of two tests; read-out: Average Inhibition Rate (%) PI3K-α
T12 construct: purchased INVITROGEN

[14] = target: T13, MEK1 (Homo sapiens, UniProt Q02750); assay: Inhibition specificity, MEK1; type: biochemical; conditions: 5000 nM, average of two tests; read-out: Average Inhibition Rate (%) MEK1
T13 construct: purchased UPSTATE
T13 sequence (Q02750 whole entry, species assumed): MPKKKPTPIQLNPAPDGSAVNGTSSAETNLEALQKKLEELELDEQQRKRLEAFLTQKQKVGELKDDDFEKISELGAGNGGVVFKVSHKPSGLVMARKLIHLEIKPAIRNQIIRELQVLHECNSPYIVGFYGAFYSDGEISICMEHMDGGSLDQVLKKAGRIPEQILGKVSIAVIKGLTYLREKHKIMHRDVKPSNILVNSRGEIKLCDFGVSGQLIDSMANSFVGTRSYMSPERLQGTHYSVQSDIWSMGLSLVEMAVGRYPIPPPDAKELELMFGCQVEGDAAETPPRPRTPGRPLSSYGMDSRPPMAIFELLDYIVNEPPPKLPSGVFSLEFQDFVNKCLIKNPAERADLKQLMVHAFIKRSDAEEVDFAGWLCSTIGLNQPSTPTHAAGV

[15] = target: T14, SRC (Homo sapiens, UniProt P12931); assay: Inhibition specificity, SRC; type: biochemical; conditions: 5000 nM, average of two tests; read-out: Average Inhibition Rate (%) SRC
T14 construct: purchased INVITROGEN

[16] = test system: corneal angiogenesis; assay: Rabbit corneal chemical burn model; type: in vivo, white rabbits; conditions: 100 uM subconjunctival injection then drops twice a day, 7 days
Method: This test tested in total 5 white rabbits who were 5-6 month old. After narcotizing, in the center of the cornea, the right eye was treated with a 6 mm diameter of round filter paper which was soaked with 0.1M NaOH, induced for 3 min to produce chemical burn modeling.

[17] = target: T15, ROCK1 (Homo sapiens, UniProt Q13464); assay: Inhibition specificity, ROCK1; type: biochemical; conditions: 5000 nM, average of two tests; read-out: Average Inhibition Rate (%) ROCK1
T15 construct: purchased CARNA
T15 sequence (Q13464 whole entry, species assumed): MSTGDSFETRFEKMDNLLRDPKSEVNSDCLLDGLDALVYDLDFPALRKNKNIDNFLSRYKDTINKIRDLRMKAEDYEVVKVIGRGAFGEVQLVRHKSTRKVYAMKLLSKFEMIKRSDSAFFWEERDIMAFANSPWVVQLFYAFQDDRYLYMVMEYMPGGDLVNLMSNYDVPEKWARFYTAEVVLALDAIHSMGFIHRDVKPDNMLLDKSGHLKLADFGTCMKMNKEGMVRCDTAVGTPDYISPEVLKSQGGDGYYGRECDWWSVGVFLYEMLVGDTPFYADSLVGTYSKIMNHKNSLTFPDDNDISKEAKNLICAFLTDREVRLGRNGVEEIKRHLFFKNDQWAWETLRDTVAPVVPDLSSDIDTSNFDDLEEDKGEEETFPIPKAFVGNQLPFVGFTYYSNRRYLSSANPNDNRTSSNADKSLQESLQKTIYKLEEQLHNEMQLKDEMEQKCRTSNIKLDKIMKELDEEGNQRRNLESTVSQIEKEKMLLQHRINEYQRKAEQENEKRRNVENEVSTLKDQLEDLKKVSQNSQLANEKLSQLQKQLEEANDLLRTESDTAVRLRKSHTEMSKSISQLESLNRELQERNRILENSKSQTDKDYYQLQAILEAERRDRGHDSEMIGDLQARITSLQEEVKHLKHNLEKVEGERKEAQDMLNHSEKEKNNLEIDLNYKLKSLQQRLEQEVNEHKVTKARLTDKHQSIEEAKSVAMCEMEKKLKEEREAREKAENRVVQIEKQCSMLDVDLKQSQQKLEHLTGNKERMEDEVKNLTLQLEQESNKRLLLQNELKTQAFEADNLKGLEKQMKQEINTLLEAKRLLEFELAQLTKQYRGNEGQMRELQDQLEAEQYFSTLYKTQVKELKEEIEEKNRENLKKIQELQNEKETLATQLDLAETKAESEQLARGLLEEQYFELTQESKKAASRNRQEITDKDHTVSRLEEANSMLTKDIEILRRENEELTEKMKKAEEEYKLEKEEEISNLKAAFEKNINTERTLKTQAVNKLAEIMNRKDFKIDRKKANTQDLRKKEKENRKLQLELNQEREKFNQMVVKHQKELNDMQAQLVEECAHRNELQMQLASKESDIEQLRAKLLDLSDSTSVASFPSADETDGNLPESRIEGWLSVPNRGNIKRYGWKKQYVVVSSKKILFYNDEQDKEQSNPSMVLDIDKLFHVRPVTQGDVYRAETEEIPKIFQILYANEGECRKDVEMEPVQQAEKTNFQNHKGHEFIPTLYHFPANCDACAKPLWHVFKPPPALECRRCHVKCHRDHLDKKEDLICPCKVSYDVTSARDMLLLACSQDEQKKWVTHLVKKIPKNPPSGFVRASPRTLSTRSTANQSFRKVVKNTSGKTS

[18] = target: T16, VEGFR2 (Homo sapiens, UniProt P35968); assay: In vitro inhibition test on VEGFR2 in HUVECs (anti-phosphorylated VEGFR2 blot); type: cell-based; conditions: 10 nM, 100 nM and 1 μM, 50 ng/ml VEGF
T16 construct: endogenous in cells; host or cells: primary HUVECs P3-P5
T16 sequence (P35968 20-1356): as the sequence (P35968 20-1356, species assumed) above
Method: The experimental method of detecting the inhibition of the compounds of the present invention on VEGFR2 kinase is as follows:
1) The primary cultured human umbilical vein endothelial cells (HUVECs) P3-P5 were transferred to 6 well plate, 2×10^5 cells per well;
2) compounds 2-1, 2-2 and 2-4 of the present invention (the concentrations are 10 nM, 100 nM and 1 μM for each compound) were added when the cells grow to 70-80%, VEGF was a control, incubation for 30 min;
3) 50 ng/ml VEGF (cell Signaling company, US) was added, stimulating for 10 min;
4) nondenature lysis buffer was added to terminate the reaction, and cell lysis buffer was collected to carry out protein quantification;
5) SDS-PAGE electrophoresis, transfer to nitrocellulose membrane, the membrane was cut off and sealed in phosphate tween buffer, TTBS buffer (Tris-buffered saline 0.01% Tween 20, cell Signaling company, US, PH8.0) formulated from 5% skimmed milk for 2 hours; 6) wash the membrane, seal at 4° C. overnight by use of an anti-phosphorylated VEGFR2 antibody (1:1000 dilution, cell Signaling company, US); 7) on the second day after washing membrane, horse radish peroxidase marked goat anti-rabbit second antibody (cell Signaling company, US) was incubated with the membrane at room temperature for 1 hour; 8) develop with chemiluminescence kit (Millipore company) after washing membrane, and take photos.

[19] = target: T17, MAPK3 (Homo sapiens, UniProt P27361); assay: Inhibition specificity, MAPK3; type: biochemical; conditions: 5000 nM, average of two tests; read-out: Average Inhibition Rate (%) MAPK3
T17 construct: purchased INVITROGEN

inhibition at 5 µM [1]: > 97%
inhibition at 5 µM [2]: -2.15%
inhibition at 5 µM [3]: 3.75%
inhibition at 5 µM [4]: 1.35%
inhibition activity on KDR (in words) [5]: good inhibition activity
IC50 [5]: 0.0277 µM
Inhibition Rate on KDR (%) ([5]; concentration 0.0002823 (uM)): 2.75%
Inhibition Rate on KDR (%) ([5]; concentration 0.0008468 (uM)): 0.61%
Inhibition Rate on KDR (%) ([5]; concentration 0.0025403 (uM)): 7.27%
Inhibition Rate on KDR (%) ([5]; concentration 0.0076208 (uM)): 20.59%
Inhibition Rate on KDR (%) ([5]; concentration 0.0228624 (uM)): 45.65%
Inhibition Rate on KDR (%) ([5]; concentration 0.0685871 (uM)): 71.24%
Inhibition Rate on KDR (%) ([5]; concentration 0.2057613 (uM)): 84.37%
Inhibition Rate on KDR (%) ([5]; concentration 0.6172840 (uM)): 91.13%
Inhibition Rate on KDR (%) ([5]; concentration 1.8518519 (uM)): 94.18%
Inhibition Rate on KDR (%) ([5]; concentration 5.5555556 (uM)): 95.30%
Inhibition Rate on KDR (%) ([5]; concentration 16.6666667 (uM)): 94.60%
Inhibition Rate on KDR (%) ([5]; concentration 50 (uM)): 94.91%
Hill KDR [5]: 1.066
inhibition at 5 µM [6]: -0.57%
inhibition at 5 µM [7]: 16.9%
inhibition at 5 µM [8]: -0.01%
inhibition at 5 µM [9]: ~71%
inhibition at 5 µM [10]: ~72%
inhibition activity on PDGFR-β (in words) [11]: good inhibition activity
IC50 [11]: 1.94 µM
Inhibition Rate on PDGFR-β (%) ([11]; concentration 0.0002823 (uM)): 0.72%
Inhibition Rate on PDGFR-β (%) ([11]; concentration 0.0008468 (uM)): 2.69%
Inhibition Rate on PDGFR-β (%) ([11]; concentration 0.0025403 (uM)): 0.80%
Inhibition Rate on PDGFR-β (%) ([11]; concentration 0.0076208 (uM)): 1.43%
Inhibition Rate on PDGFR-β (%) ([11]; concentration 0.0228624 (uM)): 7.89%
Inhibition Rate on PDGFR-β (%) ([11]; concentration 0.0685871 (uM)): 10.09%
Inhibition Rate on PDGFR-β (%) ([11]; concentration 0.2057613 (uM)): 12.85%
Inhibition Rate on PDGFR-β (%) ([11]; concentration 0.6172840 (uM)): 23.86%
Inhibition Rate on PDGFR-β (%) ([11]; concentration 1.8518519 (uM)): 46.85%
Inhibition Rate on PDGFR-β (%) ([11]; concentration 5.5555556 (uM)): 73.86%
Inhibition Rate on PDGFR-β (%) ([11]; concentration 16.6666667 (uM)): 86.35%
Inhibition Rate on PDGFR-β (%) ([11]; concentration 50 (uM)): 85.78%
Hill PDGFR-β [11]: 1.09
inhibition at 5 µM [12]: 3.83%
inhibition at 5 µM [13]: 6.78%
inhibition at 5 µM [14]: 1.06%
inhibition at 5 µM [15]: ~21%
inhibition at 5 µM [17]: 2.63%
inhibition of VEGFR2 (in words, FIG. 8) [18]: can inhibit VEGFR2
inhibition at 5 µM [19]: 1.44%
Compound: Nc1cc(Oc2ccc3c(C(=O)Nc4cccc(C(F)(F)F)c4)cccc3n2)ncn1 [Compound 2-1]
effect on corneal angiogenesis (in words, FIG. 12) [16]: obviously reduces corneal angiogenesis

Average Inhibition Rate (%) KDR ([1]; 5 µM): 100.1%
inhibition at 5 µM [1]: 100%
inhibition at 5 µM [2]: -5.87%
inhibition at 5 µM [3]: 2.02%
inhibition at 5 µM [4]: -1.2%
inhibition activity on KDR (in words) [5]: good inhibition activity
IC50 [5]: 0.00731 µM
Inhibition Rate on KDR (%) ([5]; concentration 0.0002823 (uM)): 5.09%
Inhibition Rate on KDR (%) ([5]; concentration 0.0008468 (uM)): 11.82%
Inhibition Rate on KDR (%) ([5]; concentration 0.0025403 (uM)): 25.59%
Inhibition Rate on KDR (%) ([5]; concentration 0.0076208 (uM)): 49.36%
Inhibition Rate on KDR (%) ([5]; concentration 0.0228624 (uM)): 78.25%
Inhibition Rate on KDR (%) ([5]; concentration 0.0685871 (uM)): 90.14%
Inhibition Rate on KDR (%) ([5]; concentration 0.2057613 (uM)): 92.95%
Inhibition Rate on KDR (%) ([5]; concentration 0.6172840 (uM)): 94.82%
Inhibition Rate on KDR (%) ([5]; concentration 1.8518519 (uM)): 97.30%
Inhibition Rate on KDR (%) ([5]; concentration 5.5555556 (uM)): 96.50%
Inhibition Rate on KDR (%) ([5]; concentration 16.6666667 (uM)): 94.47%
Inhibition Rate on KDR (%) ([5]; concentration 50 (uM)): 95.99%
Hill KDR [5]: 1.175
inhibition at 5 µM [6]: 0.555%
inhibition at 5 µM [7]: ~80%
inhibition at 5 µM [8]: 2.63%
inhibition at 5 µM [9]: ~97%
inhibition at 5 µM [10]: ~92%
inhibition activity on PDGFR-β (in words) [11]: good inhibition activity
IC50 [11]: 0.15 µM
Inhibition Rate on PDGFR-β (%) ([11]; concentration 0.0002823 (uM)): 0.62%
Inhibition Rate on PDGFR-β (%) ([11]; concentration 0.0008468 (uM)): 0.49%
Inhibition Rate on PDGFR-β (%) ([11]; concentration 0.0025403 (uM)): −0.84%
Inhibition Rate on PDGFR-β (%) ([11]; concentration 0.0076208 (uM)): 2.85%
Inhibition Rate on PDGFR-β (%) ([11]; concentration 0.0228624 (uM)): 15.13%
Inhibition Rate on PDGFR-β (%) ([11]; concentration 0.0685871 (uM)): 34.21%
Inhibition Rate on PDGFR-β (%) ([11]; concentration 0.2057613 (uM)): 55.90%
Inhibition Rate on PDGFR-β (%) ([11]; concentration 0.6172840 (uM)): 78.29%
Inhibition Rate on PDGFR-β (%) ([11]; concentration 1.8518519 (uM)): 91.57%
Inhibition Rate on PDGFR-β (%) ([11]; concentration 5.5555556 (uM)): 96.43%
Inhibition Rate on PDGFR-β (%) ([11]; concentration 16.6666667 (uM)): 97.95%
Inhibition Rate on PDGFR-β (%) ([11]; concentration 50 (uM)): 98.80%
Hill PDGFR-β [11]: 0.92
inhibition at 5 µM [12]: 2.46%
inhibition at 5 µM [13]: -7.1%
inhibition at 5 µM [14]: 4.96%
inhibition at 5 µM [15]: ~65%
inhibition at 5 µM [17]: 1.39%
inhibition of VEGFR2 (in words, FIG. 8) [18]: can inhibit VEGFR2
inhibition at 5 µM [19]: 1.12%
Compound: Nc1nccc(Oc2ccc3c(C(=O)Nc4cccc(C(F)(F)F)c4)cccc3n2)n1 [Compound 2-2]
effect on corneal angiogenesis (in words, FIG. 12) [16]: obviously reduces corneal angiogenesis
